Measurements from patent US11242337B2, “Compounds useful for treating gastrointestinal tract disorders” (Ardelyx, Inc., priority 2017, dated 2022).

Experiments:
[1] = molecular target: T1, NHE3 (Homo sapiens, UniProt P48764); assay: Cell-based assay of NHE-3 activity (persistent inhibition), human; conditions: human Persistence, 60 min incubation then washout
T1 construct: expressed in transfected cells
T1 sequence (P48764 26-834): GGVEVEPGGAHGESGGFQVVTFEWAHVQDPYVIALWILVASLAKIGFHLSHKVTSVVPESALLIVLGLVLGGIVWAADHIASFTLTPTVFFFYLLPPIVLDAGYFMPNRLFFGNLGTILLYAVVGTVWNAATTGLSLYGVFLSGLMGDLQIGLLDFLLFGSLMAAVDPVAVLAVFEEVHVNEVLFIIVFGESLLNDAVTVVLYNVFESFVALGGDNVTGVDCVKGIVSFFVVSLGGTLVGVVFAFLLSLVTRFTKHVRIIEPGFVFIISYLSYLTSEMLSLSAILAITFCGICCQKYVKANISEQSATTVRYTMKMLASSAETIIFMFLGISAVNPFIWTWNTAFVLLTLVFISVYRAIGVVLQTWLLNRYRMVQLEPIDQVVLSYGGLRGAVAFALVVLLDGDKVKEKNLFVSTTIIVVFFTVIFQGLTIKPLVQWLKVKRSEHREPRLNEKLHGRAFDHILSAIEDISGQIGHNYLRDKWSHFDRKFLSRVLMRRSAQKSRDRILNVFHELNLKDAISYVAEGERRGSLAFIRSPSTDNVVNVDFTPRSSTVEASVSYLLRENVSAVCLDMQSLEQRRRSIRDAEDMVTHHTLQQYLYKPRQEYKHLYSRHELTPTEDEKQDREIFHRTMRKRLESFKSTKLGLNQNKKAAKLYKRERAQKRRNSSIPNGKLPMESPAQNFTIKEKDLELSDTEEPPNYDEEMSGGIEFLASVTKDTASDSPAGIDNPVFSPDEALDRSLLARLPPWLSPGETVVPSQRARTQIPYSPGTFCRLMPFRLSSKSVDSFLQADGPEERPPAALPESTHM
T1 sequence (Q99653 2-195 partner limits assumed): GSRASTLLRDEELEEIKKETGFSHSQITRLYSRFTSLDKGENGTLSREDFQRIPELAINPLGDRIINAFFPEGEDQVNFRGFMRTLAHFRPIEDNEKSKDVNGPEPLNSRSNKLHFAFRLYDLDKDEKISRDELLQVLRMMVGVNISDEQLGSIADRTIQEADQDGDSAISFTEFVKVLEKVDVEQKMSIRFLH
Outline: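 PS120 fibroblasts expressing human NHE3 with NHERF2 exposed to 0-30 μM compound for 60 min at RT, then washed out; cells acid-loaded by NH4Cl prepulse with BCECF-AM and Na+-free buffer. Na+-driven pH recovery started 10 min post-washout; initial rate of BCECF ratio change (FLIPR) taken as activity.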

[2] = system: human ileum monolayer culture; assay: Sustained inhibition of apical acid secretion in human organoid monolayer cell cultures (ileum); assay type: cell-based; conditions: 1 μM apical, dosed day 6, apical media pH day 8, vs DMSO
Method: Basal media (BM) consisted of advanced DMEM/F12 containing 10 mM HEPES Invitrogen, 15630-080), 1:100 Glutamax (Invitrogen, 35050-061), and 1:100 penicillin/streptomycin (Invitrogen, 15140-122). Supplemented basal media (SBM) contained 1:100 N2 (Invitrogen, 17502-048), 1:50 B27 (Invitrogen, 12587-010), 1 mM N-acetylcysteine (Sigma, A9165), and 10 nM [Leu15]-gastrin I (Sigma, G9145). Growth factors used included 50 ng per mL mouse EGF (Peprotech, 315-09), 100 ng per mL mouse noggin (Peprotech, 250-38), 500 ng per mL human R-spondin 1 (R&D, 4645-RS), 100 ng per mL mouse Wnt-3a (R&D, 1324-WN), 20 μM. Y-27632 (Tocris, 1254), 10 mM nicotinamide (Sigma, N0636), 500 nM A83-01 (Tocris, 2939), 10 μM SB202190 (Tocris, 1264). Transwells were 0.4 μm pore polyester membrane 24-well Transwell inserts (Corning). Cultures were incubated at 37° C. in 5% CO2.
Human ileum organoids were cultured in WENRNAS (Wnt, EGF, noggin, R-spondin1, Nicotinamide, A83-01, SB202190) and typically grown for 7-12 days before being used to plate monolayer cultures. On day 0, organoid cultures embedded in Matrigel were treated with TrypLE Express to break organoids into small pieces and/or single cells. The cells were resuspended to 0.5×10^6 cells/mL in SBM containing WENRAY (Wnt, EGF, noggin, R-spondin1, A83-01, Y-27632). Following this step, 200 μL of cell suspension was plated into the apical side of a 24-well Transwell (100,000 cells/well) and 600 μL of SBM with WENRAY was added to the basolateral side. Ileum cells were differentiated with ENRA (EGF, noggin, R-spondin 1, A83-01) on day 3. The color of apical compartment turns from pink or orange to yellow due to the increase in NHE3 expression after differentiation.
Each human ileum monolayer culture well was washed twice with fresh SBM on the apical side on day 6 before compound dosing. All compound stocks were 10 mM dissolved in DMSO. Each compound stock was individually mixed with fresh SBM to reach final compound concentration 1 μM and dosed only on the apical side of the monolayer (total volume 200 μl). DMSO at the equivalent concentration was used as the vehicle control. Duplicate wells were dosed for each compound. On day 8, apical media pH was measured by pH electrode, to determine the ability of example compounds to produce sustained inhibition of NHE3 activity in a human monolayer culture system by preventing proton secretion into the apical compartment.

Row | Molecule | % inhibition [1] | % inhibition (ileum) [2] | pIC50 [1]
1 | 3-[2-(2-[2-[(4-[[(1S,2S)-4,6-Dichloro-2-[(3R)-3-[methyl(propan-2-yl)amino]piperidin-1-yl]-2,3-dihydro-1H-inden-1-yl]oxy]benzene) sulfonamido]ethoxy]ethoxy)ethyl]-1-[4-([[2-(2-[2-[(4-[[(1S,2S)-4,6-dichloro-2-[(3R)-3-[methyl(propan-2-yl)amino]piperidin-1-yl]-2,3-dihydro-1H-inden-1-yl]oxy]benzene)sulfonamido]ethoxy]ethoxy)ethyl]carbamoyl]amino)butyl]urea; bis(trifluoroacetic acid) [Example 78] | C (>70%) | C (>70%) | 
2 | Cc1cc(Cl)cc2c1C[C@H](N1CCC[C@@H](N(C)C)C1)[C@H]2Oc1ccc(S(=O)(=O)NCCOCCOCCNC(=O)NCCCCNC(=O)NCCOCCOCCNS(=O)(=O)c2ccc(O[C@H]3c4cc(Cl)cc(C)c4C[C@@H]3N3CCC[C@@H](N(C)C)C3)c(F)c2)cc1F [Example 30, 3-[2-(2-[2-[(4-[[(1S,2S)-6-Chloro-2-[(3R)-3-(dimethylamino)piperidin-1-yl]-4-methyl-2,3-dihydro-1H-inden-1-yl]oxy]-3-fluorobenzene)sulfonamido]ethoxy]ethoxy)ethyl]-1-[4-([[2-(2-[2-[(4-[[(1S,2S)-6-chloro-2-[(3R)-3-(dimethylamino)piperidin-1-yl]-4-methyl-2,3-dihydro-1H-inden-1-yl]oxy]-3-fluorobenzene)sulfonamido]ethoxy]ethoxy)ethyl]carbamoyl]amino)butyl]urea; bis(trifluoroacetic acid)] | C (>70%) |  | C (NHE3 pIC50 > 7)
3 | Cc1cc(S(=O)(=O)N[C@@H]2CCN(CCOCCNC(=O)NCCCCNC(=O)NCCOCCN3CC[C@@H](NS(=O)(=O)c4ccc(O[C@H]5c6cc(Cl)cc(Cl)c6C[C@@H]5N(C)C)c(C)c4)C3)C2)ccc1O[C@H]1c2cc(Cl)cc(Cl)c2C[C@@H]1N(C)C [Example 53, 3-(2-[2-[(3R)-3-[(4-[[(1S,2S)-4,6-Dichloro-2-(dimethylamino)-2,3-dihydro-1H-inden-1-yl]oxy]-3-methylbenzene)sulfonamido]pyrrolidin-1 yl]ethoxy]ethyl)-1-(4-[[(2-[2-[(3R)-3-[(4-[[(1S,2S)-4,6-dichloro-2-(dimethylamino)-2,3-dihydro-1H-inden-1-yl]oxy]-3-methylbenzene)sulfonamido]pyrrolidin-1-yl]ethoxy]ethyl)carbamoyl]amino]butyl)urea] | C (>70%) |  | C (NHE3 pIC50 > 7)
4 | Cc1cc(O[C@H]2c3cc(Cl)cc(Cl)c3C[C@@H]2N(C)C)c(F)cc1S(=O)(=O)NCCOCCOCCNC(=O)NCCCCNC(=O)NCCOCCOCCNS(=O)(=O)c1cc(F)c(O[C@H]2c3cc(Cl)cc(Cl)c3C[C@@H]2N(C)C)cc1C [Example 88, 3-[2-(2-[2-[(4-[[(1S,2S)-4,6-Dichloro-2-(dimethylamino)-2,3-dihydro-1H-inden-1-yl]oxy]-5-fluoro-2-methylbenzene)sulfonamido]ethoxy]ethoxy)ethyl]-1-[4-([[2-(2-[2-[(4-[[(1S,2S)-4,6-dichloro-2-(dimethylamino)-2,3-dihydro-1H-inden-1-yl]oxy]-5-fluoro-2-methylbenzene)sulfonamido]ethoxy]ethoxy)ethyl]carbamoyl]amino)butyl]urea] | C (>70%) |  | C (NHE3 pIC50 > 7)
5 | N#Cc1cc(Cl)cc2c1C[C@H](N1CCNCC1)[C@H]2Oc1ccc(S(=O)(=O)N2CCC(NC(=O)CCCNC(=O)NCCCCNC(=O)NCCCC(=O)NC3CCN(S(=O)(=O)c4ccc(O[C@H]5c6cc(Cl)cc(C#N)c6C[C@@H]5N5CCNCC5)cc4)CC3)CC2)cc1 [Example 120, N^1,N^18-Bis(1-([4-([(1S,2S)-6-chloro-4-cyano-2-(piperazin-1-yl)-2,3-dihydro-1H-inden-1-yl]oxy)phenyl]sulfonyl)piperidin-4-yl)-6,13-dioxo-5,7,12,14-tetraazaoctadecanediamide] | C (>70%) |  | C (NHE3 pIC50 > 7)
6 | C[C@@H]1CN([C@H]2Cc3c(C#N)cc(Cl)cc3[C@@H]2Oc2ccc(S(=O)(=O)N[C@H]3CCN(CCOCCNC(=O)NCCCCNC(=O)NCCOCCN4CC[C@H](NS(=O)(=O)c5ccc(O[C@H]6c7cc(Cl)cc(C#N)c7C[C@@H]6N6CCN[C@H](C)C6)cc5)C4)C3)cc2)CCN1 [Example 132, 4-([(1S,2S)-6-Chloro-4-cyano-2-[(R)-3-methylpiperazin-1-yl]-2,3-dihydro-1H-inden-1-yl]oxy)-N—[(S)-1-(20-[(S)-3-([4-([(1S,2S)-6-chloro-4-cyano-2-[(R)-3-methylpiperazin-1-yl]-2,3-dihydro-1H-inden-1-yl]oxy)phenyl]sulfonamido)pyrrolidin-1-yl]-7,14-diaxo-3,18-dioxa-5,8,13,15-tetraazaicosyl)pyrrolidin-3-yl]benzenesulfonamide; bis(trifluoroacetic acid)] | C (>70%) |  | C (NHE3 pIC50 > 7)
7 | C[C@@H]1CN([C@H]2Cc3c(C#N)cc(Cl)cc3[C@@H]2Oc2ccc(S(=O)(=O)N[C@@H]3CCN(CCOCCNC(=O)NCCCCNC(=O)NCCOCCN4CC[C@@H](NS(=O)(=O)c5ccc(O[C@H]6c7cc(Cl)cc(C#N)c7C[C@@H]6N6CCN[C@H](C)C6)cc5)C4)C3)cc2)CCN1 [Example 133, 4-([(1S,2S)-6-Chloro-4-cyano-2-[(R)-3-methylpiperazin-1-yl]-2,3-dihydro-1H-inden-1-yl]oxy)-N—[(R)-1-(20-[(R)-3-([4-([(1S,2S)-6-chloro-4-cyano-2-[(R)-3-methylpiperazin-1-yl]-2,3-dihydro-1H-inden-1-yl]oxy)phenyl]sulfonamido)pyrrolidin-1-yl]-7,14-dioxo-3,18-dioxa-6,8,13,15-tetraazaicosyl)pyrrolidin-3-yl]benzenesulfonamide; bis(trifluoroacetic acid)] | C (>70%) |  | C (NHE3 pIC50 > 7)
8 | N#Cc1cc(Cl)cc2c1C[C@H](N1CCNCC1)[C@H]2Oc1ccc(S(=O)(=O)N[C@H]2CCN(C(=O)CCCNC(=O)NCCCCNC(=O)NCCCC(=O)N3CC[C@H](NS(=O)(=O)c4ccc(O[C@H]5c6cc(Cl)cc(C#N)c6C[C@@H]5N5CCNCC5)cc4)C3)C2)cc1 [Example 143, 4-([(1S,2S)-6-Chloro-4-cyano-2-(piperazin-1-yl)-2,3-dihydro-1H-inden-1-yl]oxy)-N—[(S)-1-(18-[(S)-3-([4-([(1S,2S)-6-chloro-4-cyano-2-(piperazin-1-yl)-2,3-dihydro-1H-inden-1-yl]oxy)phenyl]sulfonamido)pyrrolidin-1-yl]-6,13,18-trioxo-5,7,12,14-tetraazaoctadecanoyl)pyrrolidin-3-yl]benzenesulfonamide] | C (>70%) |  | C (NHE3 pIC50 > 7)
